Results: US20260042754A1, “Substituted Bicyclic Heteroaryl Sulfonamide Derivatives for the Treatment of Cancer” (NODUS ONCOLOGY LIMITED, priority 2022, published 2026)
pIC50: −log10 of the molar value. Like-named read-outs stand apart in the source and are kept apart here.

Tests used:
[1] = target: human PARG (PARG-NanoLuc fusion in HEK293T cells) (Homo sapiens (Human), UniProt Q86W56); test: PARG NanoBRET-based cellular target engagement assay; type: cell-based; settings: HEK293T cells transfected with PARG-NanoLuc, NanoBRET probe 0.89 μM, 2 hours; read-out: PARG TE IC50
Procedure: PARG Nano-luciferase construct: The PARG-NanoLuc® fusion vector was generated by Promega, by inserting the full length human PARG cDNA sequence encoding the 976 amino acid protein (Gene ID: 8505, UniProt: Q86W56) into the pNLF1-C [CMV/Hygro] vector (C-terminal fusions with NanoLuc® enzyme).
PARG target engagement tracer synthesis: The NanoBRET tracer for PARG was prepared following a previously reported general tracer synthesis procedure.
PARG Probe Displacement Assay Using NanoBRET: HEK293T (DSMZ #ACC 635) cells transiently transfected with the PARG-NanoLuc fusion construct were resuspended in phenol red-free OptiMEM (Gibco #11058-021) to a concentration of 2.4×10^5 cells/mL. 9 μL per well were then added to a white 384-well low volume microplate (Greiner #784080) and incubated for 24 hours under standard growth conditions.
Then compound was dispensed into each well using an Echo dispenser (BeckmanCoulter) to yield the pre-specified final concentration of the range of concentrations to be tested (typically 8-point serial concentrations ranging from either from 0.01 to 10 μM, or from 0.001 to 1 μM, or from 0.0001 to 0.1 μM), and being volume-corrected with 100% DMSO (0.5% final DMSO concentration in reaction mixtures).
After mixing and an incubation at room temperature for 15 min 1 μl of the NanoBRET probe (at 0.89 μM final concentration) was added to the microplate using a multichannel pipette. The plate was mixed and incubated in a 5% CO2 environment at 37° C. for 2 hours, and then 5 μL per well of a solution consisting of a 1:31.25 dilution of Nano-Glo substrate (Promega) and a 1:500 dilution of NanoLuc extracellular inhibitor (Promega) in phenol red-free OptiMEM was added to each well followed by another mixing step. Filtered luminescence was measured on an EnVision plate reader (PerkinElmer) equipped with a 460 nm filter (donor) and a 645 nm filter (acceptor). BRET ratios were plotted as concentration-response curves fitted to a sigmoidal 4-parameter logistic model to calculate IC50 values (Scigilian Analyze).

[2] = target: Recombinant His-tagged human PARG protein (Homo sapiens (Human), UniProt Q86W56); test: PARG enzymatic assay (TFMU-ADPr fluorescence); type: biochemical; settings: 1 nM enzyme, 200 μM TFMU-ADPr, read after 30 minutes
Procedure: Inhibition of PARG enzymatic activity by compounds was determined as follows: Recombinant His-tagged human PARG protein expressed in Sf21 insect cells (Adipogen AG, #40T-0022) was aliquoted and stored at −80° C. until use. The artificial enzyme substrate 4-(trifluoromethyl)umbelliferone (TFMU)-ADPr was prepared essentially as described (Drown B S et al, Cell Chemical Biology 2018) and stored at −20° C. as 10 mM stock solutions in DMSO (dimethyl sulfoxide) until use. For reactions, typical final concentration of the enzyme was 1 nM and of the TFMU-ADPr 200 μM. Reactions were carried out in black 384-well low volume round bottom assay plates (Corning, #4514) in a final volume of 10 μL. To this end, PARG was diluted to 1.67 nM in reaction buffer (50 mM K2HPO4, 50 mM KCl, 10 mM β-mercaptoethanol, pH 7.4) and 6 μL were dispensed per assay well using a multichannel pipette. Then compound was dispensed into each well using an Echo dispenser (BeckmanCoulter) to yield the pre-specified final concentration of the range of concentrations to be tested (typically 8-point serial concentrations ranging from either from 0.01 to 10 μM, or from 0.001 to 1 μM, or from 0.0001 to 0.1 μM), and being volume-corrected with 100% DMSO (0.5% final DMSO concentration in reaction mixtures). Plates were mixed, and after 15 minutes 4 μL TFMU-ADPr was added into each well using a multichannel pipette followed by brief mixing. Fluorescence intensity signals were then measured after 30 minutes on an EnVision microplate reader (PerkinElmer) using 380/10 nm and 535/25 nm filters for the excitation and emission, respectively (gain: 150). The assay window was set using DMSO control (top) and a control containing no PARG enzyme (bottom). Delta values were plotted as concentration-response curves fitted to a sigmoidal 4-parameter logistic model to calculate IC50 values (Scigilian Analyze).

RMUG-S = test: Modified cell proliferation assay (CellTiter-Glo), RMUG-S, Examples 12-44; type: cell-based; settings: Examples 12-44: modified protocol, 384-well, 300 cells per well, 120 h; highest concentration tested 9000 nM; read-out: RMUG-S GI50 (high PARG dependency)
Procedure: (§1) The cell proliferation assay protocol was modified and used for RMUG-S for Examples 12-44, and subsequently used to test Examples 1-44 in the NCI-H1650 cell line.
(§2) NCI-H1650 (ATCC, #CRL-5883) or RMUG-S were seeded on day 1 at 300 cells per well in a 384-well plate (Greiner, #781080) that assure assay linearity and optimal signal intensity in 25 μL of RPMI1640 media (Pan Biotech, #P04-22100) containing 10% FCS (Capricorn, #FBS-11A; Lot. CP22-5141) and 1% Glutamine (Pan Biotech, #P04-80100). After incubation for 24 h in humidified chambers at 37° C./5% CO2, compounds/DMSO were dispensed at different concentrations using an Echo 520 (Beckman Coulter). Cells were further incubated for 120 h at 37° C. and 5% CO2. Cells treated with the compound vehicle DMSO were used as negative controls and cells treated with 10 μM Staurosporine (LC Laboratories, #S-9300) served as positive controls.
(§3) At day 6 the CellTiter Glo Reagent was prepared according to the instructions of the kit (Promega Inc.): Reagent was mixed 1:1 with cell culture medium. Thereon, mixture and assay plates were equilibrated at room temperature for 20 min. Equal volumes of the reagent-medium-mixture were added to the volume of culture medium present in each well. The plates were mixed at […] for 2 minutes on an orbital shaker (Timix5, Edmund Buehler GmbH). The microplates were then incubated at room temperature for 10 minutes for stabilization of the luminescent signal. Following incubation, the luminescence was recorded on a Victor X5 microplate reader (Perkin Elmer) using a 200 ms integration time. The data was then analyzed with Excel using the XLFIT Plugin (dose response Fit 205) for determination of the concentration necessary for half-maximal inhibition (i.e. the inflection point of the fitted curve).
(§4) As quality control the Z′-factor was calculated from 16 positive and negative control values. Only assay results showing a Z′-factor≥0.5 were used for further analysis.

NCI-H1650 = test: Modified cell proliferation assay (CellTiter-Glo), NCI-H1650; type: cell-based; settings: modified protocol, 384-well, 300 cells per well, 120 h, highest concentration tested 30000 nM, read-out: NCI-H1650 GI50 (high PARG dependency)
Procedure: as §1, §2, §3, §4

Recombinant His-tagged human PARG protein, sequence (Q86W56 whole entry): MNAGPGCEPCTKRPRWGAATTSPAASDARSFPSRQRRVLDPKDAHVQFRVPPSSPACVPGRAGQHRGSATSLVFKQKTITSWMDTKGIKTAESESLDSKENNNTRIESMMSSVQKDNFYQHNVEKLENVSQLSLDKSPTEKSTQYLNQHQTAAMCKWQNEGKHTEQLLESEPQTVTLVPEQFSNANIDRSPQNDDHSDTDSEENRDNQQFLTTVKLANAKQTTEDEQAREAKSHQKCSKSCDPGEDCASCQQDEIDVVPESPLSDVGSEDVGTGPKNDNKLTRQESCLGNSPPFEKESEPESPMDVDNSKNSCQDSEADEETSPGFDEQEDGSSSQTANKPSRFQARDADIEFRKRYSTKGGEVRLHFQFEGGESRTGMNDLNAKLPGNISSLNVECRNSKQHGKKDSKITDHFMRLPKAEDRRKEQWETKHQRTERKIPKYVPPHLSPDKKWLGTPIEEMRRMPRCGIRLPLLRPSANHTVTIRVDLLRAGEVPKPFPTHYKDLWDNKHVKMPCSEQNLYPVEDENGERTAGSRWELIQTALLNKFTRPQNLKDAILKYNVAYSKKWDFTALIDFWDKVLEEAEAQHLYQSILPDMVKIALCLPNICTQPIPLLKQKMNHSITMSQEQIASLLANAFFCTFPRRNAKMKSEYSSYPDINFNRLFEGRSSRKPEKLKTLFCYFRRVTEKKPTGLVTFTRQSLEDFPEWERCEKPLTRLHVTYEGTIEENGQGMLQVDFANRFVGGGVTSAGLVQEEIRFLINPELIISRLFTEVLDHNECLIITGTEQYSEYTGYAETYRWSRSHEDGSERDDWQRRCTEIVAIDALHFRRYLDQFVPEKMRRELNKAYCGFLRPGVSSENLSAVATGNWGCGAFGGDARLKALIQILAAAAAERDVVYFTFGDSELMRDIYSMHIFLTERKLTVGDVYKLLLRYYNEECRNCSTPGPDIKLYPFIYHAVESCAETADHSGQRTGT
human PARG (PARG-NanoLuc fusion in HEK293T cells), sequence (Q86W56 whole entry, the tested form may be a part): as the sequence (Q86W56 whole entry) above

Compound	pIC50 [1]	pIC50 [2]	GI50 (RMUG-S) [nM]	GI50 (NCI-H1650) [nM]	GI50 (NCI-H1650; Homo sapiens, NCI-H1650) [nM]
CO/N=c1\[nH]c2c(C3=C[C@@H](C)N(C(C)=O)CC3)cc(S(=O)(=O)NC3(C)CC3)cc2c(=O)n1Cc1cnn(C)c1 [Example 29, (2E)-2-methoxyimino-N-(1-methylcyclopropyl)-3-[(1-methylpyrazol-4-yl)methyl]-4-oxo-8-[(2R)-1-acetyl-2-methyl-3,6-dihydro-2H-pyridin-4-yl]-1H-quinazoline-6-sulfonamide/(2E)-2-methoxyimino-N-(1-methylcyclopropyl)-3-[(1-methylpyrazol-4-yl)methyl]-4-oxo-8-[(6R)-1-acetyl-6-methyl-3,6-dihydro-2H-pyridin-4-yl]-1H-quinazoline-6-sulfonamide]	> 7.52	> 7.52	500 to 2000	500 to 2000	
CO/N=c1\[nH]c2c(N3CCN(C(=O)C4(N(C)C)CC4)[C@H](C)C3)cc(S(=O)(=O)NC3(C)CC3)cc2c(=O)n1Cc1cnn(C)c1 [Example 34, (R,E)-8-(4-(1-(dimethylamino)cyclopropane-1-carbonyl)-3-methylpiperazin-1-yl)-2-(methoxyimino)-3-((1-methyl-1H-pyrazol-4-yl)methyl)-N-(1-methylcyclopropyl)-4-oxo-1,2,3,4-tetrahydroquinazoline-6-sulfonamide]	> 7.52	> 7.52			< 500
CO/N=c1\[nH]c2c(N3CCN(C(=O)C4(C#N)CC4)[C@H](C)C3)cc(S(=O)(=O)NC3(C)CC3)cc2c(=O)n1Cc1cnn(C)c1 [Example 33, (R,E)-8-(4-(1-cyanocyclopropane-1-carbonyl)-3-methylpiperazin-1-yl)-2-(methoxyimino)-3-((1-methyl-1H-pyrazol-4-yl)methyl)-N-(1-methylcyclopropyl)-4-oxo-1,2,3,4-tetrahydroquinazoline-6-sulfonamide]	> 7.52	> 7.52			< 500
CO/N=c1\[nH]c2c(N3CCN(C(=O)N(C)C)[C@H](C)C3)cc(S(=O)(=O)NC3(C)CC3)cc2c(=O)n1Cc1cnn(C)c1 [Example 41, (R,E)-4-(2-(methoxyimino)-3-((1-methyl-1H-pyrazol-4-yl)methyl)-6-(N-(1-methylcyclopropyl)sulfamoyl)-4-oxo-1,2,3,4-tetrahydroquinazolin-8-yl)-N,N,2-trimethylpiperazine-1-carboxamide]	> 7.52	> 7.52			< 500
CO/N=c1\[nH]c2c(N3CCN(C(=O)N4CCC(F)(F)C4)[C@H](C)C3)cc(S(=O)(=O)NC3(C)CC3)cc2c(=O)n1Cc1cnn(C)c1 [Example 36, (R,E)-8-(4-(3,3-difluoropyrrolidine-1-carbonyl)-3-methylpiperazin-1-yl)-2-(methoxyimino)-3-((1-methyl-1H-pyrazol-4-yl)methyl)-N-(1-methylcyclopropyl)-4-oxo-1,2,3,4-tetrahydroquinazoline-6-sulfonamide]	> 7.52	> 7.52			< 500
CO/N=c1\[nH]c2c(C3CCN[C@H](C)C3)cc(S(=O)(=O)NC3(C)CC3)cc2c(=O)n1Cc1cnn(C)c1 (stereo partly drawn) [Example 24, (2E)-2-methoxyimino-N-(1-methylcyclopropyl)-3-[(1-methylpyrazol-4-yl)methyl]-4-oxo-8-[(2R)-2-methyl-4-piperidyl]-1H-quinazoline-6-sulfonamide]	6.00 to 7.00	> 7.52	2000 to 9000		> 2000
CO/N=c1\[nH]c2c(C3CCN(C(C)=O)[C@H](C)C3)cc(S(=O)(=O)NC3(C)CC3)cc2c(=O)n1Cc1cnn(C)c1 (stereo partly drawn) [Example 26, (2E)-2-methoxyimino-N-(1-methylcyclopropyl)-3-[(1-methylpyrazol-4-yl)methyl]-4-oxo-8-[(2R)-1-acetyl-2-methyl-4-piperidyl]-1H-quinazoline-6-sulfonamide]	> 7.52	> 7.52	2000 to 9000		500 to 2000
CO/N=c1\[nH]c2c(-c3ccc(C(N)=O)cc3)cc(S(=O)(=O)NC3(C)CC3)cc2c(=O)n1Cc1cnn(C)c1 [Example 15, (E)-4-(2-(methoxyimino)-3-((1-methyl-1H-pyrazol-4-yl)methyl)-6-(N-(1-methylcyclopropyl)sulfamoyl)-4-oxo-1,2,3,4-tetrahydroquinazolin-8-yl)benzamide]	7.00 to 7.52	> 7.52			> 2000
CO/N=c1\[nH]c2c(-c3ccc(C(=O)N(C)C)c(C)c3)cc(S(=O)(=O)NC3(C)CC3)cc2c(=O)n1Cc1cnn(C)c1 [Example 14, (E)-4-(2-(methoxyimino)-3-((1-methyl-1H-pyrazol-4-yl)methyl)-6-(N-(1-methylcyclopropyl)sulfamoyl)-4-oxo-1,2,3,4-tetrahydroquinazolin-8-yl)-N,N,2-trimethylbenzamide]	> 7.52	> 7.52			< 500
CO/N=c1\[nH]c2c(C3=C[C@@H](C)N(C(=O)C4(C)CC4)CC3)cc(S(=O)(=O)NC3(C)CC3)cc2c(=O)n1Cc1cnn(C)c1 [Example 30, (2E)-2-methoxyimino-N-(1-methylcyclopropyl)-3-[(1-methylpyrazol-4-yl)methyl]-4-oxo-8-[(2R)-2-methyl-1-(1-methylcyclopropanecarbonyl)-3,6-dihydro-2H-pyridin-4-yl]-1H-quinazoline-6-sulfonamide/(2E)-2-methoxyimino-N-(1-methylcyclopropyl)-3-[(1-methylpyrazol-4-yl)methyl]-4-oxo-8-[(6R)-6-methyl-1-(1-methylcyclopropanecarbonyl)-3,6-dihydro-2H-pyridin-4-yl]-1H-quinazoline-6-sulfonamide]	> 7.52	> 7.52	< 500	< 500	
